The text below walks through data of patent US10100046B2, “Inhibitors of lysine specific demethylase-1” (Celgene Quanticel Research, Inc., priority 2014, dated 2018).

The target in one test is full-length human LSD1 (Homo sapiens (Human), UniProt O60341). Description: In Vitro Enzyme Inhibition Assay—LSD-1 (TR-FRET). The class given is biochemical. The note with it: H3K4me1-biotin labeled peptide. How it is done:
This assay determines the ability of a test compound to inhibit LSD1 demethylase activity. E. coli expressed full-length human LSD1 (Accession number 060341) was purchased from Active Motif (Cat#31334).
The enzymatic assay of LSD1 activity is based on Time Resolved-Fluorescence Resonance Energy Transfer (TR-FRET) detection. The inhibitory properties of compounds to LSD1 were determined in 384-well plate format under the following reaction conditions: 0.1-0.5 nM LSD1, 50 nM H3K4me1-biotin labeled peptide (Anaspec cat #64355), 2 μM FAD in assay buffer of 50 mM HEPES, pH7.3, 10 mM NaCl, 0.005% Brij35, 0.5 mM TCEP, 0.2 mg/ml BSA. Reaction product was determined quantitatively by TR-FRET after the addition of detection reagent Phycolink Streptavidin-allophycocyanin (Prozyme) and Europium-anti-unmodified histone H3 lysine 4 (H3K4) antibody (PerkinElmer) in the presence of LSD1 inhibitor such as 1.8 mM of Tranylcypromine hydrochloride (2-PCPA) in LANCE detection buffer (PerkinElmer) to final concentration of 12.5 nM and 0.25 nM respectively.
The assay reaction was performed according to the following procedure: 2 μL of the mixture of 150 nM H3K4me1-biotin labeled peptide with 2 μL of 11-point serial diluted test compound in 3% DMSO were added to each well of plate, followed by the addition of 2 μL of 0.3 nM LSD1 and 6 μM of FAD to initiate the reaction. The reaction mixture was then incubated at room temperature for one hour, and terminated by the addition of 6 μL of 1.8 mM 2-PCPA in LANCE detection buffer containing 25 nM Phycolink Streptavidin-allophycocyanin and 0.5 nM Europium-anti-unmodified H3K4 antibody. Enzymatic reaction is terminated within 15 minutes if 0.5 LSD1 enzyme is used in the plate. Plates were read by EnVision Multilabel Reader in TR-FRET mode (excitation at 320 nm, emission at 615 nm and 665 nm) after 1 hour incubation at room temperature. A ratio was calculated (665/615) for each well and fitted to determine inhibition constant (IC50).
The ability of the compounds disclosed herein to inhibit LSD1 activity was quantified and the respective IC50 value was determined. Table 3 provides the IC50 values of various substituted heterocyclic compounds disclosed herein.

A further test concerns THP-1 (AML) cells. Description: LSD1 CD11b Cellular Assay (flow cytometry). The class given is cell-based. The note with it: Homo sapiens, 96 h; CD11b expression in THP-1 cells, 4 days. How it is done: To analyze LSD1 inhibitor efficacy in cells, a CD11b flow cytometry assay was performed. LSD1 inhibition induces CD11b expression in THP-1 (AML) cells which can be measured by flow cytometry. […] LSD1 test compounds were serially diluted in DMSO. The dilutions were added to each well accordingly to a final concentration of 0.2% DMSO. The cells were incubated at 37 degrees Celsius in 5% CO2 for 4 days. 250 μL of each well was transferred to a well in a 96 well round bottom plate. The plate was centrifuged at 1200 rpm at 4 degrees Celsius in a Beckman Coulter Alegra 6KR centrifuge for 5 minutes. The media was removed leaving the cells at the bottom of the wells. The cells were washed in 100 μL cold HBSS (Hank's Balanced Salt Solution) plus 2% BSA (Bovine Serum Albumin) solution and centrifuged at 1200 rpm at 4 degrees Celsius for 5 minutes. The wash was removed. […] The cells were centrifuged and washed two times in 100 μl HBSS plus 2% BSA. After the final spin the cells were resuspended in 100 μL HBSS plus 2% BSA containing 1 ug/mL DAPI (4′,6-diamidino-2-phenylindole). The cells were then analyzed by flow cytometry in a BD FACSAria machine. Cells were analyzed for CD11b expression. The percent of CD11b expressing cells for each inhibitor concentration was used to determine an IC50 curve for each compound analyzed.
A general note: Flow cytometry measures light scatter and fluorescence of single cells or particles in a stream.

Turning to `Cn1ncc2cc(-c3sc(N4CCC(N)CC4)nc3-c3ccc(C#N)cc3)ccc21` [Example 1, 4-[2-(4-aminopiperidin-1-yl)-5-(1-methyl-1H-indazol-5-yl)-1,3-thiazol-4-yl]benzonitrile], the IC50 against full-length human LSD1 was not above 100 nM; in the test on THP-1 (AML) cells, less than 100 nM.

With `Cn1ncc2cc(-c3sc(N4CC[C@@H]5CNC[C@@H]5CC4)nc3-c3ccc(C#N)cc3)ccc21` [Example 2, cis-4-(2-{decahydropyrrolo[3,4-d]azepin-6-yl}-5-(1-methyl-1H-indazol-5-yl)-1,3-thiazol-4-yl)benzonitrile], in the test with THP-1 (AML) cells, the IC50 is less than 100 nM.

As to `Cn1ccc2cc(-c3sc(N4CCC(N)CC4)nc3-c3ccc(C#N)cc3)cnc21` [Example 3, 4-[2-(4-aminopiperidin-1-yl)-5-{1-methyl-1H-pyrrolo[2,3-b]pyridin-5-yl}-1,3-thiazol-4-yl]benzonitrile], the results for the IC50 against full-length human LSD1 and in the test on THP-1 (AML) cells were not above 100 nM and less than 100 nM, respectively. In the same order, the values of `Cn1ncc2cc(-c3sc(N4CCC(N)CC4)nc3-c3ccc(C#N)cc3)cnc21` [Example 4, 4-[2-(4-aminopiperidin-1-yl)-5-{1-methyl-1H-pyrazolo[3,4-b]pyridin-5-yl}-1,3-thiazol-4-yl]benzonitrile] are not above 100 nM and less than 100 nM. For `Cn1ncc2cc(-c3sc(N4CCC5(CCNC5)CC4)nc3-c3ccc(C#N)cc3)ccc21` [Example 5, 4-(2-{2,8-diazaspiro[4.5]decan-8-yl}-5-(1-methyl-1H-indazol-5-yl)-1,3-thiazol-4-yl)benzonitrile], the 50% inhibitory concentration (IC50) is not above 100 nM against full-length human LSD1 and 100 to 1000 nM in the test with THP-1 (AML) cells. In the same order, the values of `Cn1ncc2cc(-c3sc(N4CCC5NCCC5C4)nc3-c3ccc(C#N)cc3)ccc21` (centres unmarked) [Example 6] are not above 100 nM and less than 100 nM. In the case of `Cn1ncc2cc(-c3sc(N4CCC5CNCC5C4)nc3-c3ccc(C#N)cc3)ccc21` (centres unmarked) [Example 7], the half-inhibitory concentration (IC50) against full-length human LSD1 is not above 100 nM; with THP-1 (AML) cells it was less than 100 nM. Consider `Cn1cnc2cc(-c3sc(N4CCC(N)CC4)nc3-c3ccc(C#N)cc3)ccc21` [Example 8, 4-[2-(4-aminopiperidin-1-yl)-5-(1-methyl-1H-1,3-benzodiazol-5-yl)-1,3-thiazol-4-yl]benzonitrile], for which the IC50 was not above 100 nM against full-length human LSD1 and less than 100 nM in the test with THP-1 (AML) cells. In the same order, the values of `Cn1cnc2cc(-c3sc(N4CCC(N)CC4)nc3-c3ccc(C#N)cc3)cnc21` [Example 9, 4-[2-(4-aminopiperidin-1-yl)-5-{3-methyl-3H-imidazo[4,5-b]pyridin-6-yl}-1,3-thiazol-4-yl]benzonitrile] are not above 100 nM and less than 100 nM. In the same order, the values of `Cn1cnc2cc(-c3sc(N4CC[C@@H]5CNC[C@@H]5CC4)nc3-c3ccc(C#N)cc3)ccc21` [Example 10, cis-4-(2-{decahydropyrrolo[3,4-d]azepin-6-yl}-5-(1-methyl-1H-1,3-benzodiazol-5-yl)-1,3-thiazol-4-yl)benzonitrile] are not above 100 nM and less than 100 nM.

In the case of `Cn1ncc2cc(-c3sc(N4CC[C@@H]5CNC[C@@H]5CC4)nc3-c3ccc(C#N)cc3)cnc21` [Example 11, cis-4-(2-{decahydropyrrolo[3,4-d]azepin-6-yl}-5-{1-methyl-1H-pyrazolo[3,4-b]pyridin-5-yl}-1,3-thiazol-4-yl)benzonitrile], the IC50 against full-length human LSD1 is not above 100 nM; in the test with THP-1 (AML) cells, less than 100 nM. Consider `N#Cc1ccc(-c2nc(N3CCC(N)CC3)sc2-c2cnn(CC(F)(F)F)c2)cc1` [Example 12, 4-[2-(4-aminopiperidin-1-yl)-5-[1-(2,2,2-trifluoroethyl)-1H-pyrazol-4-yl]-1,3-thiazol-4-yl]benzonitrile], for which the IC50 at full-length human LSD1 was not above 100 nM; in the test with THP-1 (AML) cells, less than 100 nM.

Turning to `N#Cc1ccc(-c2nc(N3CC[C@@H]4CNC[C@@H]4CC3)sc2-c2cnn(CC(F)(F)F)c2)cc1` [Example 13, 4-(2-{decahydropyrrolo[3,4-d]azepin-6-yl}-5-[1-(2,2,2-trifluoroethyl)-1H-pyrazol-4-yl]-1,3-thiazol-4-yl)benzonitrile], the IC50 against full-length human LSD1 is not above 100 nM; in the test on THP-1 (AML) cells it was less than 100 nM.

With `N#Cc1ccc(-c2nc(N3CCC(N)CC3)sc2-c2cnn(CC3CC3)c2)cc1` [Example 14, 4-[2-(4-aminopiperidin-1-yl)-5-[1-(cyclopropylmethyl)-1H-pyrazol-4-yl]-1,3-thiazol-4-yl]benzonitrile], the IC50 against full-length human LSD1 is not above 100 nM; in the test with THP-1 (AML) cells, 100 to 1000 nM. In the same order, the values of `N#Cc1ccc(-c2nc(N3CC[C@@H]4CNC[C@@H]4CC3)sc2-c2cnn(CC3CC3)c2)cc1` [Example 15, 4-{5-[1-(cyclopropylmethyl)-1H-pyrazol-4-yl]-2-{decahydropyrrolo[3,4-d]azepin-6-yl}-1,3-thiazol-4-yl}benzonitrile] are not above 100 nM and 100 to 1000 nM. In the same order, the values of `Cn1cnc2cc(-c3sc(C(=O)N4CCC[C@@H](N)C4)nc3-c3ccc(C#N)cc3)ccc21` [Example 16, 4-{2-[(3R)-3-aminopiperidine-1-carbonyl]-5-(1-methyl-1H-1,3-benzodiazol-5-yl)-1,3-thiazol-4-yl}benzonitrile] are not above 100 nM and less than 100 nM.

As for `Cn1cnc2cc(-c3sc(C(=O)N4CCC[C@H](N)C4)nc3-c3ccc(C#N)cc3)ccc21` [Example 17, 4-{2-[(3 S)-3-aminopiperidine-1-carbonyl]-5-(1-methyl-1H-1,3-benzodiazol-5-yl)-1,3-thiazol-4-yl}benzonitrile], the 50% inhibitory concentration (IC50) against full-length human LSD1 is not above 100 nM; in the test on THP-1 (AML) cells it was less than 100 nM. In the same order, the values of `Cn1cnc2cc(-c3sc(C(=O)N4CCC(N)CC4)nc3-c3ccc(C#N)cc3)ccc21` [Example 18, 4-[2-(4-aminopiperidine-1-carbonyl)-5-(1-methyl-1H-1,3-benzodiazol-5-yl)-1,3-thiazol-4-yl]benzonitrile] are not above 100 nM and less than 100 nM.

As for `Cc1ccc(-c2sc(C(=O)N3CCC[C@@H](N)C3)nc2-c2ccc(C#N)cc2)cc1` [Example 19, 4-{2-[(3R)-3-aminopiperidine-1-carbonyl]-5-(4-methylphenyl)-1,3-thiazol-4-yl}benzonitrile], the figures for the IC50 against full-length human LSD1 and with THP-1 (AML) cells were not above 100 nM and less than 100 nM, respectively.

Regarding `Cn1cnc2cc(-c3sc(C(=O)N4CCC[C@@H](N)C4)nc3-c3ccc(C#N)cc3)cnc21` [Example 20, 4-{2-[(3R)-3-aminopiperidine-1-carbonyl]-5-{3-methyl-3H-imidazo[4,5-b]pyridin-6-yl}-1,3-thiazol-4-yl}benzonitrile], the values for the IC50 at full-length human LSD1 and in the test with THP-1 (AML) cells were not above 100 nM and 100 to 1000 nM, respectively. In the same order, the values of `N#Cc1ccc(-c2nc(C(=O)N3CCC[C@@H](N)C3)sc2-c2cnn(CC(F)(F)F)c2)cc1` [Example 21, 4-{2-[(3R)-3-aminopiperidine-1-carbonyl]-5-[1-(2,2,2-trifluoroethyl)-1H-pyrazol-4-yl]-1,3-thiazol-4-yl}benzonitrile] are not above 100 nM and less than 100 nM. In the same order, the values of `N#Cc1ccc(-c2nc(C(=O)N3CCC[C@@H](N)C3)sc2-c2cnn(CC3CC3)c2)cc1` [Example 22, 4-{2-[(3R)-3-aminopiperidine-1-carbonyl]-5-[1-(cyclopropylmethyl)-1H-pyrazol-4-yl]-1,3-thiazol-4-yl}benzonitrile] are not above 100 nM and 100 to 1000 nM.

With `COc1ccc(-n2c(-c3ccc(C#N)c(F)c3)nc(N3CCC(N)CC3)cc2=O)cc1` [Example 32, 4-[4-(4-aminopiperidin-1-yl)-1-(4-methoxyphenyl)-6-oxopyrimidin-2-yl]-2-fluorobenzonitrile], at full-length human LSD1, the concentration for half-maximal inhibition (IC50) is not above 100 nM.

The term IC50 denotes the concentration needed to halve the response being measured. A high value points to lower potency.
